Test results published in patent US7572803B2 (The Christus Stehlin Foundation for Cancer Research, priority 2007, dated 2009).
“And” between values parts separate entries of the source, which are not always exact repeats. Equal entries are not always repeated.

What was measured:
human tumor xenografts = details: in mice, against human tumor xenografts; cited from earlier work
[1] = Pharmacokinetics for CPT in human plasma (lactone ring intact); assay type: in vitro ADME; details: read-out: half-life time of the drug with the lactone ring intact
[2] = Determination of PK parameters after oral administration to nude mice; assay type: in vivo
Experimental: The determination of PK parameters of crystalline CZ48 hydrate. Pharmacokinetic profile of crystalline camptothecin-20-O-propionate hydrate with a single dose of 2000 mg/kg was recorded following an oral administration to nude mice. […] Camptothecin-20-O-acetate, an analogue of CZ48 which was not a crystalline hydrate, was used as an internal standard for determining all PK parameters of the CZ48 hydrate. A 100 μL plasma from the mouse treated with crystalline CZ48 hydrate at dose of 2000 mg/kg was transferred into a 2-mL test-tube, and then 100 μL of internal-standard working solution (400 ng/mL) was also added to the tube. To the mixture, were also added 200 μL of 1% acetic acid solution and 1 mL ethyl ether. After vortex-mixing for 10 s, the mixture was incubated at room temperature on a shaker for 10 min, and then centrifuged at 10,000×g for 15 min. The upper layer obtained from the centrifugation was transferred into a clean tube and evaporated to dryness using an evaporator at 40° C. under a stream of nitrogen. The residue was reconstituted in 200 μL of water/acetonitrite (50/50, v/v) solvent system, and a 20-μL portion of the aliquot was injected into HPLC system for analysis. For the study, A 100 μL blank plasma from untreated mouse was also processed in the same manner as the treated.

[3] = system: PC3P62 prostate tumor line; assay: Effective dose, PC3P62 xenograft in nude mice; assay type: in vivo, human; details: oral, dose giving positive response
Experimental: (§1) In vivo anti-tumor activity determination. All the animal experiments were performed on nude Swiss mice of the NIH, high-fertility strain. They were bred and raised in laboratory under strict pathogen-free conditions. For anti-tumor activity determination, a tumor xenograft growing in a nude mouse, approximately 1 cm^3 in size, was surgically removed under sterile conditions, finely minced with iridectomy scissors, and suspended in cell culture medium at the ratio 1:10, v/v. One half of 1 mL of this suspension, containing about 50 mg of wet-weight tumor mince was subcutaneously inoculated on the upper half of the dorsal thorax of the mouse. Groups of four or five animals were used. Hydrated crystalline CZ48 was finely suspended in cottonseed oil and then injected into the stomach cavity of the mouse through the anterior abdominal wall using a 26 gauge needle. The weekly schedule used for oral administration of hydrated crystalline CZ48 was once a day for 7 days, or five days on and two days off. This schedule was employed throughout all the animal experiments. Treatment was initiated when the tumor had reached a volume of about 200 mm^3, i.e., well-vascularized, measurable, and growing exponentially. Tumors growing in animals were checked and measured with a caliper once a week. The effective doses were established when a positive response in mouse was reached.

[4] = In situ single-pass intestinal perfusion, percentage absorption in mouse; assay type: in vivo, nude mice
Experimental: The determination of percentage absorption of crystalline CZ48 hydrate in mouse. Absorption studies were also performed with crystalline camptothecin-20-O-propionate hydrate by using a mouse perfusion procedure on 4 nude mice. Prior to the in situ single-pass perfusion procedure, HBSS buffer (pH 7.4) consisting of 9.801 g/L HBSS powders, 0.372 g/L NaHCO3, 3.502 g/L glucose, 5.963 g/L HEPES, and 1.164 g/L NaCl was prepared and stored in a refrigerator. The perfusate for the procedure was prepared by mixing a certain amount of the drug, crystalline CZ48 hydrate, with an amount of HBSS buffer. The mixture was heated up to 37° C. (body temperature) right before use. A group of 4 mice with weights ranging from 25 to 30 grams and ages ranging from 9 to 11 months were anesthetized and placed onto a heating plate. The plate was maintained a constant temperature of 37° C. After a perfusion system was set ready with a mouse, two segments of the intestine (small intestine, IS, and colon) were simultaneously perfused with the freshly prepared perfusate. The pump was maintained at a constant flow-rate of 0.191 mL/min for the whole perfusion. Two perfusate samples were collected from each outlet (SI tract or colon) every 30 min. The concentrations of the drug in perfusate from the outlets were determined by HPLC analysis, and the corresponding percentage absorptions were calculated relative to the starting amount of the drug and shown in Table 5.

[5] = system: human Pancreas tumor lines; assay: Anti-tumor activity, pancreatic tumor xenografts in nude mice; assay type: in vivo; details: oral
Description: (§2) In vivo anti-tumor activity determination. The human tumors used in the experiments discussed herein included 1 bladder line, 3 breast lines, 4 colon lines, 1 DSRCT line, 1 kidney line, 2 melanoma lines, 2 lung lines, 7 pancreatic lines, and 1 prostate line. The hydrated crystalline CZ48 drug was finely suspended in cottonseed oil and stored in a refrigerator for using. The suspension was orally administered to the mice bearing human tumors once a day continuously for 5 days on and 2 days off or once a day for seven days for the whole treatment period. The treatment period for the various tumor lines varied, ranging from two weeks to one year. […] With the continuous schedule (daily treatment), one of those two negatively responded pancreatic tumor lines under the 5/2 schedule achieved the positive response.
as §1, with “Treatment was initiated when the tumor had reached a volume of about 200 mm^3, i.e., well-vascularized, measurable, and growing exponentially.” left out, “The effective doses were established when a positive response in mouse was reached.” left out

human Breast tumor lines = assay: Anti-tumor activity, breast tumor xenografts in nude mice; assay type: in vivo; details: oral
Description: as §2
(§3) In vivo anti-tumor activity determination. All the animal experiments were performed on nude Swiss mice of the NIH, high-fertility strain. They were bred and raised in laboratory under strict pathogen-free conditions. For anti-tumor activity determination, a tumor xenograft growing in a nude mouse, approximately 1 cm^3 in size, was surgically removed under sterile conditions, finely minced with iridectomy scissors, and suspended in cell culture medium at the ratio 1:10, v/v. […] Tumors growing in animals were checked and measured with a caliper once a week. […]

MUR breast tumor line = assay: Effective dose, MUR xenograft in nude mice; assay type: in vivo, human; details: oral, dose giving positive response
Experimental: as §1

McC colon tumor line = assay: Effective dose, McC xenograft in nude mice; assay type: in vivo, human; details: oral, dose giving positive response
Experimental: as §1

human Colon tumor lines = assay: Anti-tumor activity, colon tumor xenografts in nude mice; assay type: in vivo; details: oral
Description: as §2, §3

human Bladder tumor line = assay: Anti-tumor activity, bladder tumor xenografts in nude mice; assay type: in vivo; details: oral
Description: as §2, §3

PANC1-pancreas = assay: Effective dose, PANC1 xenograft in nude mice; assay type: in vivo, human; details: oral, dose giving positive response
Experimental: as §1

MYE DSRCT line = assay: Effective dose, MYE xenograft in nude mice; assay type: in vivo, human; details: oral, dose giving positive response
Experimental: as §1

human Melanoma lines = assay: Anti-tumor activity, melanoma xenografts in nude mice; assay type: in vivo; details: oral
Description: as §2, §3

BOL bladder tumor line = assay: Effective dose, BOL xenograft in nude mice; assay type: in vivo, human; details: oral, dose giving positive response
Experimental: as §1

SU86.86-pancreas = assay: Effective dose, SU86.86 xenograft in nude mice; assay type: in vivo, human; details: oral, dose giving positive response
Experimental: as §1

SQU colon tumor line = assay: Effective dose, SQU xenograft in nude mice; assay type: in vivo, human; details: oral, dose giving positive response
Experimental: as §1

[6] = system: HS766T pancreas tumor line; assay: Effective dose, HS766T xenograft in nude mice; assay type: in vivo, human; details: oral, dose giving positive response
Experimental: as §1

DOY lung tumor line = assay: Effective dose, DOY xenograft in nude mice; assay type: in vivo, human; details: oral, dose giving positive response
Experimental: as §1

SPA lung tumor line = assay: Effective dose, SPA xenograft in nude mice; assay type: in vivo, human; details: oral, dose giving positive response
Experimental: as §1

CLO-breast carcinoma = assay: Effective dose, CLO xenograft in nude mice; assay type: in vivo, human; details: oral
Experimental: as §1

WAR breast tumor line = assay: Effective dose, WAR xenograft in nude mice; assay type: in vivo, human; details: oral, dose giving positive response
Experimental: as §1

HT29 colon tumor line = assay: Effective dose, HT29 xenograft in nude mice; assay type: in vivo, human; details: oral, dose giving positive response
Experimental: as §1

human DSRCT line = assay: Anti-tumor activity, DSRCT xenografts in nude mice; assay type: in vivo; details: oral
Description: as §2, §3

SW48 colon tumor line = assay: Effective dose, SW48 xenograft in nude mice; assay type: in vivo, human; details: oral, dose giving positive response
Experimental: as §1

[7] = system: ASPC1 pancreas tumor line; assay: Effective dose, ASPC1 xenograft in nude mice; assay type: in vivo, human; details: oral, dose giving positive response
Experimental: as §1

FOSS melanoma line = assay: Effective dose, FOSS xenograft in nude mice; assay type: in vivo, human; details: oral, dose giving positive response
Experimental: as §1

[8] = system: MiaPaCa2 pancreas tumor line; assay: Effective dose, MiaPaCa2 xenograft in nude mice; assay type: in vivo, human; details: oral, dose giving positive response
Experimental: as §1

human Lung tumor lines = assay: Anti-tumor activity, lung tumor xenografts in nude mice; assay type: in vivo; details: oral
Description: as §2, §3

BRO melanoma line = assay: Effective dose, BRO xenograft in nude mice; assay type: in vivo, human; details: oral, dose giving positive response
Experimental: as §1

human xenografts = assay: In vivo anti-tumor activity against human tumor xenografts in nude mice (all lines); details: oral, cottonseed oil suspension, 5 days-on and 2 days-off schedule
Description: as §2, §3

LIE pancreas tumor line = assay: Effective dose, LIE xenograft in nude mice; assay type: in vivo, human; details: oral, dose giving positive response
Experimental: as §1

[9] = In vivo toxicity determination (body weight) in nude mice; details: continuously for 60 days
Experimental: In vivo toxicity determination. Groups of 4 or 5 animals of about the same age and having similar weights were chosen and treated with crystalline CZ48 hydrate orally at doses of 1500 mg/kg and 2000 mg/kg, respectively, continuously for 60 days. The 3 groups of mice chosen for the toxicity studies were healthy, of similar age and weights, and non-tumor-bearing. One group was used as control, and the other two groups were treated with the drug at two high-dose levels, 1500 mg/kg and 2000 mg/kg respectively, for about two months. The body weight changes in animals during the treatment were recorded for the treated group versus the untreated group beginning at day 0 and ending at the 60th day.
The body-weight loss was used as a parameter to measure the toxicity of the agent. Usually, body weight loss of 10% or more in mice during treatment is considered a sign of toxicity. Greater body-weight loss signifies greater toxicity.

CAK-kidney = assay: Effective dose, CAK xenograft in nude mice; assay type: in vivo, human; details: oral, dose giving positive response
Experimental: as §1

SMILES: CC[C@@]1(O)C(=O)OCc2c1cc1n(c2=O)Cc2cc3c([N+](=O)[O-])cccc3nc2-1 [9-nitrocamptothecin]
- potency relative to CPT (human tumor xenografts): 2-3 times

SMILES: CC[C@@]1(O)C(=O)OCc2c1cc1n(c2=O)Cc2cc3ccccc3nc2-1 [CPT, camptothecin, reference compound]
- half-life [1]: ~30 min
- Ke ([2]; mice, oral hydrated crystalline CZ48 2000 mg/kg, plasma, CPT = major metabolite): 0.40 ± 0.13 h⁻¹

SMILES: CCC(=O)O[C@]1(CC)C(=O)OCc2c1cc1n(c2=O)Cc2cc3ccccc3nc2-1 [hydrated crystalline CZ48, crystalline camptothecin-20-O-propionate hydrate]
- Effective dose [3]: 300 mg/kg
- % Crystalline CZ48 Hydrate Absorptions, Colon, Ave ([4]; colon, average of 4 mice): −19.46%
- % Crystalline CZ48 Hydrate Absorptions, Colon ([4]; colon, individual mice No. 1-4, HBSS pH 7.4, 37° C., 0.191 mL/min, listed as Crystalline CZ48 Hydrate, hydrate): 8.04% and −35.17% and −73.24% and 6.82%
- % Crystalline CZ48 Hydrate Absorptions, SI, Ave ([4]; small intestine, average of 4 mice): 22.23%
- % Crystalline CZ48 Hydrate Absorptions, SI ([4]; small intestine, individual mice No. 1-4, HBSS pH 7.4, 37° C., 0.191 mL/min, listed as Crystalline CZ48 Hydrate, hydrate): 11.49% and 16.51% and 9.34% and 45.85%
- Response Negative (inhibition of growth smaller than 50%), lines/tested ([5]; Pancreas, nude mice): 1/7
- Response Positive (inhibition of growth bigger than 50%), lines responding/tested ([5]; Pancreas, nude mice): 6/7
- pancreatic tumor lines that failed to obtain the positive response ([5]; 5 days-on and 2 days-off schedule): 2 lines
- Response Positive (inhibition of growth bigger than 50%), lines responding/tested (human Breast tumor lines): 3/3
- Effective dose (MUR breast tumor line): 300 mg/kg
- Effective dose (McC colon tumor line): 300 mg/kg
- Response Positive (inhibition of growth bigger than 50%), lines responding/tested (human Colon tumor lines): 4/4
- Response Positive (inhibition of growth bigger than 50%), lines responding/tested (human Bladder tumor line): 1/1
- Effective dose (PANC1-pancreas): 1000 mg/kg
- Effective dose (MYE DSRCT line): 100 mg/kg
- Response Positive (inhibition of growth bigger than 50%), lines responding/tested (human Melanoma lines): 2/2
- Effective dose (BOL bladder tumor line): 200 mg/kg
- Effective dose (SU86.86-pancreas): 1000 mg/kg
- Effective dose (SQU colon tumor line): 30 mg/kg
- Effective dose [6]: 100 mg/kg
- Effective dose (DOY lung tumor line): 15 mg/kg
- Effective dose (SPA lung tumor line): 100 mg/kg
- Effective dose (CLO-breast carcinoma; CLO (Breast), nude mice, dose giving positive response): 4 mg/kg
- tumor growth inhibition (CLO-breast carcinoma; CLO-breast carcinoma, dose 4 mg/kg): complete inhibition
- Effective dose (WAR breast tumor line): 200 mg/kg
- Effective dose (HT29 colon tumor line): 50 mg/kg
- AUC(0-t) ([2]; nude, mouse, in vivo, po, 2000 mg/kg): 1930 ± 114 ng·h/mL
- Response Positive (inhibition of growth bigger than 50%), lines responding/tested (human DSRCT line): 1/1
- Effective dose (SW48 colon tumor line): 100 mg/kg
- Effective dose [7]: 300 mg/kg
- Effective dose (FOSS melanoma line): 300 mg/kg
- Effective dose [8]: 100 mg/kg
- Response Positive (inhibition of growth bigger than 50%), lines responding/tested (human Lung tumor lines): 2/2
- Effective dose (BRO melanoma line): 100 mg/kg
- tumor lines that achieved positive response (greater than 50% inhibition in tumor-growth inhibition) (human xenografts): 18 lines
- Effective dose (LIE pancreas tumor line): 100 mg/kg
- toxicity in the treated mice ([9]; 1500 mg/kg and 2000 mg/kg orally, non-tumor-bearing mice): no noticeable toxicity
- dose mice could tolerate ([9]; oral, implied from no significant body-weight loss): higher than 2000 mg/kg
- Effective dose (CAK-kidney): 1000 mg/kg
